Test results taken from US20250295096A1, “A RODENT MODEL OF FIBRODYSPLASIA OSSIFICANS PROGRESSIVA” (REGENERON PHARMACEUTICALS, INC., priority 2022, published 2025).

Test system: Acvr1^huecto[R206H]FIEx;[S330P]/+; Nanog-Cre mice ("FOP mice")
Test: Anti-Activin A antibody treatment of FOP mice: survival and HO formation
Type: in vivo, mouse
Description: Wild type mice and Acvr1^huecto[R206H]FIEx;[S330P]/+; Nanog-Cre mice (“FOP mice”) were treated with an anti-Activin A monoclonal antibody (Garetosmab) or an isotype control antibody.
Wild type mice and Acvr1^huecto[R206H]FIEx;[S330P]/+; Nanog-Cre mice (“FOP mice”) were treated with an anti-Activin A monoclonal antibody (Garetosmab) and an isotype control antibody. […] The deaths in untreated FOP mice are believed to be possibly due to jaw HO.

“Garetosmab: anti-Activin A monoclonal antibody” was tested, and the HO formation (compared with isotype control antibody) was “inhibited HO formation” and the survival (treatment initiated at 2 weeks of age, survival through 8 weeks of age) was 100%.
